One experiment addresses Wild-type RET kinase (Homo sapiens, UniProt P07949). Nature of the experiment: HTRF method for testing the inhibitory activity of compounds against RET. The experiment is classed as biochemical.
A further experiment addresses T1, Ba/F3-KIF5B-RET cell (Homo sapiens, UniProt P07949).
T1 construct: fused on or other part: P33176 (Kinesin-1 heavy chain)
Nature of the experiment: CellTiter-Glo luminescence assay, inhibitory activity against Ba/F3-KIF5B-RET cell. The experiment is classed as cell-based. From the text:
(C) In Vitro Screening Experiment - CellTiter-Glo Luminescence Assay for Testing The inhibitory activity of compounds against Ba/F3-KIF5B-RET cell
• 1. The mammalian cell expression vector containing human KIF5B-RET cDNA was introduced into Ba/F3 cells using the Neon® transfection system method, and the surviving clones screened by puromycin were subjected to cell growth inhibitory function experiments and Western blotting to verify cell lines with stable and high expression of RET. • 2. Cells were cultured in RPMI 1640 medium containing 10% fetal bovine serum, 1% penicillin-streptomycin, and 2 µg/mL puromycin, and then placed in a 37° C., 5% carbon dioxide cell incubator. • 3. The test compound (5 mM stock) was diluted 2.5 folds to […] with 100% dimethyl sulfoxide; and the compound was diluted into 10 concentrations at an equal ratio of 1:3 in a 384-well dilution plate. • 4. 0.2 µL of the serially diluted compound was added to a 384-well cell culture plate (Corning, 3570) using an Echo 550 pipetting system, 2 replicate wells for each concentration, and the final concentration of dimethyl sulfoxide was 0.5% (v/v). The gradient concentrations of the test compound were 5000, 1666.7, 555.5, 185.18, 61.72, 20.57, 6.858, 2.286, 0.764, 0.254 nM. • 5. 40 µL of Ba/F3-KIF5B-RET cell suspension containing 800 cells was added to each well, and incubated for 72 h in a 5% CO2 cell incubator. • 6. 20 µL of Cell Titer-Glo reagent was added to each well of the cell culture plate, and the culture system was then shaken and mixed thoroughly for 2 min to lyse the cells, the cells were then incubated at room temperature for 30 min, and the […] signal values were then read with an Envision 2104 microplate reader. • 7. By fitting the data with XLFit 5.0 based on the parameters formula, the IC50 value was calculated as: • [formula]

Where [1] appears, read: HTRF, read-out: Wild-type RET kinase.
Setting [2] is: 72 h, read-out: Ba/F3-KIF5B-RET cell activity.
The mark [3] stands for this setting: read-out: Ba/F3-KIF5B-RET cell activity, 72 h.

Where two headings read alike, the source gives them in different places.

We go through 19 molecules from patent US20230219979A1, “PYRAZOLO[1,5-a]PYRIDINE COMPOUND, PREPARATION METHOD THEREFOR AND USE THEREOF” (SHENZHEN ZHONGGE BIOLOGICAL TECHNOLOGY CO., LTD., priority 2019, published 2023).

Chain of Wild-type RET kinase (P07949 29-1114): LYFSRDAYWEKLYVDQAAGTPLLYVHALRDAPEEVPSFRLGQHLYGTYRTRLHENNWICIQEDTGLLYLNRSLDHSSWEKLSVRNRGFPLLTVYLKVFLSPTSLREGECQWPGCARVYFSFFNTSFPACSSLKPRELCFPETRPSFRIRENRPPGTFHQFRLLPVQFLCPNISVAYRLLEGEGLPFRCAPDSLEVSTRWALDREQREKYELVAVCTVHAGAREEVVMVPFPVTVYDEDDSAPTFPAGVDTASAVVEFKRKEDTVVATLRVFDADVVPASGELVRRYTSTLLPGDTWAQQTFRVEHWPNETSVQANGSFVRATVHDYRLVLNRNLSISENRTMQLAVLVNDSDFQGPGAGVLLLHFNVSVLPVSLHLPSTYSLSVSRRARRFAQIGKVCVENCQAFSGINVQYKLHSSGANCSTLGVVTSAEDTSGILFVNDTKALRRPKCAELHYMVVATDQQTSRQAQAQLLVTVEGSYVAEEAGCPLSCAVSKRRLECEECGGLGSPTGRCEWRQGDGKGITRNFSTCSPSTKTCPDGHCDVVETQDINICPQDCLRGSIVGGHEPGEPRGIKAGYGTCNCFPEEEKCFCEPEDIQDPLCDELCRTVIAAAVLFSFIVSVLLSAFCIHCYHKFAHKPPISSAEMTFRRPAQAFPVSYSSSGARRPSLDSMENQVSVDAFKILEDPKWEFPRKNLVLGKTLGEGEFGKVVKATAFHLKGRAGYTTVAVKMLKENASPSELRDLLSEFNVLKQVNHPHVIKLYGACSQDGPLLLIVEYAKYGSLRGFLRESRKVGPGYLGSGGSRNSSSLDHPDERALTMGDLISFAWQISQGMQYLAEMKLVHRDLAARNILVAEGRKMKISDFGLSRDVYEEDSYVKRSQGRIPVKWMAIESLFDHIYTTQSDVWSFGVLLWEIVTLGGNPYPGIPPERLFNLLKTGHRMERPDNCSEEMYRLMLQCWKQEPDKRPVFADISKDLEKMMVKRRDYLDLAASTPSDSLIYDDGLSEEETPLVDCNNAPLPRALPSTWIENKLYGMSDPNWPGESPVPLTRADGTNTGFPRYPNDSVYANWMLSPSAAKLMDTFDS
T1 sequence (P07949 whole entry, change not shown, the tested form may be a part): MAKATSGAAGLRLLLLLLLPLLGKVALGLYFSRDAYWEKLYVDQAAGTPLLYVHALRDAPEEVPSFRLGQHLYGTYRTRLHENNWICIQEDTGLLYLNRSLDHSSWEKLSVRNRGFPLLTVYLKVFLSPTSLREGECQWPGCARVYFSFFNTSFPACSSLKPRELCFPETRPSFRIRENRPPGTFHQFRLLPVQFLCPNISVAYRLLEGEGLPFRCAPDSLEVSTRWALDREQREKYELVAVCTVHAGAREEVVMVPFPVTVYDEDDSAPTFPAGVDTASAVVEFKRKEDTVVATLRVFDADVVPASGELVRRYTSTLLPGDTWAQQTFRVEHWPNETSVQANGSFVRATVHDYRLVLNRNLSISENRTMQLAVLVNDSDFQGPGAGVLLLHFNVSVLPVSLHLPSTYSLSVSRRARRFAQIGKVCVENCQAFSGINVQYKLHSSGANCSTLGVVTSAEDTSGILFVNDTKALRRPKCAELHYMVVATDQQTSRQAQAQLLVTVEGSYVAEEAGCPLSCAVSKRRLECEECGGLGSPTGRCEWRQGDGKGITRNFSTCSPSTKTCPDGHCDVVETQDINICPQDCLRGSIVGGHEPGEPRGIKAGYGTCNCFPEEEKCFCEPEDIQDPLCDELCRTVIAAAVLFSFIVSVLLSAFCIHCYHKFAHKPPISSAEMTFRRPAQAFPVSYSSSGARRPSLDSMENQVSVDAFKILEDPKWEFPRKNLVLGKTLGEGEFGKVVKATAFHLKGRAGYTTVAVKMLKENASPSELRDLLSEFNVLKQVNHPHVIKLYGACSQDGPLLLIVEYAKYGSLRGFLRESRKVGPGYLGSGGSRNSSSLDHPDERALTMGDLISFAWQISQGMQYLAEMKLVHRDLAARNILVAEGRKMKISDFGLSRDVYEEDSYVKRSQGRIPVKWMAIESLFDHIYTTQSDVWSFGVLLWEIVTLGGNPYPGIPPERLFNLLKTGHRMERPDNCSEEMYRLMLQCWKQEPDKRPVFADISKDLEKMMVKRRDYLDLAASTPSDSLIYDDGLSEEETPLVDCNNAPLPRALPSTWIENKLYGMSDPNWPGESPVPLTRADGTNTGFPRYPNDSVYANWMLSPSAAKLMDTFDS

Consider `COc1ccc(CN2C3CC2CN(c2cnc(-c4cc(OCCN5CCC6NCCC6C5)cn5ncc(C#N)c45)cn2)C3)cn1` (centres unmarked) [Compound 18, 4-(5-(6-((6-methoxypyridin-3-yl)methyl)-3,6-diazabicyclo[3.1.1]hept-3-yl)pyrazin-2-yl)-6-(2-(octahydro-5H-pyrrolo[3,2-c]pyridin-5-yl)ethoxy)pyrazolo[1,5-a]pyridine-3-carbonitrile], for which the IC50 on Wild-type RET kinase (setting [1]) was determined as 0.0005 µM. Moreover, on Ba/F3-KIF5B-RET cell (setting [2]), the GI50 was 0.123 µM.

Turning to `COc1ccc(CN2C3CC2CN(c2cnc(-c4cc(OCCN5CC6(CCCNC6)C5)cn5ncc(C#N)c45)cn2)C3)cn1` [Compound 19, 6-(2-(2,6-diazaspiro[3.5]non-2-yl)ethoxy)-4-(5-(6-((6-methoxypyridin-3-yl)methyl)-3,6-diazabicyclo[3.1.1]heptan-3-yl)pyrazin-2-yl)pyrazolo[1,5-a]pyridine-3-carbonitrile], on Wild-type RET kinase (setting [1]), the IC50 worked out at 0.00077 µM. Further, the GI50 at Ba/F3-KIF5B-RET cell (setting [2]) was 0.183 µM.

`COc1ccc(CN2C3CC2CN(c2cnc(-c4cc(OCCN5CCC6(COC6)C5)cn5ncc(C#N)c45)cn2)C3)cn1` [Compound 20, 6-(2-(2-oxa-6-azaspiro[3.4]oct-6-yl)ethoxy)-4-(5-(6-((6-methoxypyridin-3-yl)methyl)-3,6-diazabicyclo[3.1.1]heptan-3-yl)pyrazin-2-yl)pyrazolo[1,5-a]pyridine-3-carbonitrile]: at Wild-type RET kinase (setting [1]), the IC50 turned out to be 0.00263 µM. Moreover, the GI50 on Ba/F3-KIF5B-RET cell (setting [2]) came to 0.0191 µM.

For the molecule `COc1ccc(CN2C3CC2CN(c2cnc(-c4cc(OCCN5CCC6(CCNC6)CC5)cn5ncc(C#N)c45)cn2)C3)cn1` [Compound 21], at Wild-type RET kinase (setting [1]), the IC50 worked out at 0.00072 µM. Further, on Ba/F3-KIF5B-RET cell (setting [2]), the GI50 is 0.192 µM.

As to `COc1ccc(CN2C3CC2CN(c2cnc(-c4cc(OCCN5CC6CC(C5)N6)cn5ncc(C#N)c45)cn2)C3)cn1` [Compound 22, 6-(2-(3,6-diazabicyclo[3.1.1]heptan-3-yl)ethoxy)-4-(5-(6-((6-methoxypyridine-3-yl)methyl)-3,6-diazabicyclo[3.1.1]heptan-3-yl)pyrazin-2-yl)pyrazolo[1,5-a]pyridine-3-carbonitrile], the IC50 at Wild-type RET kinase (setting [1]) is 0.00124 µM. Also, the GI50 at Ba/F3-KIF5B-RET cell (setting [2]) came to 0.151 µM.

Take `COc1ccc(CN2C3CC2CN(c2cnc(-c4cc(OCCN5CCCC56CNC6)cn5ncc(C#N)c45)cn2)C3)cn1` [Compound 23, 6-(2-(2,5-diazaspiro[3.4]octan-5-yl)ethoxy)-4-(5-(6-((6-methoxypyridin-3-yl)methyl)-3,6-diazabicyclo[3.1.1]heptan-3-yl)pyrazin-2-yl)pyrazolo[1,5-a]pyridine-3-carbonitrile]: the IC50 at Wild-type RET kinase (setting [1]) is 0.00135 µM. The GI50 at Ba/F3-KIF5B-RET cell (setting [2]) came out at 1.13 µM.

Turning to `COc1ccc(CN2C3CC2CN(c2cnc(-c4cc(OCCN5CCC6(CCCCC6)CC5)cn5ncc(C#N)c45)cn2)C3)cn1` [Compound 24, 6-(2-(3-azaspiro[5.5]undecane-3-yl)ethoxy)-4-(5-(6-((6-methoxypyridin-3-yl)methyl)-3,6diazabicyclo[3.1.1]heptan-3-yl)pyrazin-2-yl)pyrazolo[1,5-a]pyridine-3-carbonitrile], on Wild-type RET kinase (setting [1]), the IC50 was determined as 0.00219 µM. The GI50 on Ba/F3-KIF5B-RET cell (setting [2]) turned out to be 0.0213 µM.

Regarding `COc1ccc(CN2C3CC2CN(c2cnc(-c4cc(OCCN5CCC6(CCCO6)CC5)cn5ncc(C#N)c45)cn2)C3)cn1` [Compound 25, 6-(2-(1-oxa-8-azaspiro[4.5]dec-8-yl)ethoxy)-4-(5-(6-((6-methoxypyridin-3-yl)methyl)-3,6-diazabicyclo[3.1.1]heptan-3-yl)pyrazin-2-yl)pyrazolo[1,5-a]pyridine-3-carbonitrile], at Wild-type RET kinase (setting [1]), the IC50 amounted to 0.00289 µM. For the same molecule, on Ba/F3-KIF5B-RET cell (setting [2]), the GI50 was 0.0277 µM.

In turn, `COc1ccc(CN2C3CC2CN(c2cnc(-c4cc(OC(=O)N5CCN(C)CC5)cn5ncc(C#N)c45)cn2)C3)cn1` [Compound 26, 3-cyano-4-(5-(6-((6-methoxypyridin-3-yl)methyl)-3,6-diazabicyclo[3.1.1]heptan-3-yl)pyrazin)pyrazolo[1,5-a]pyridin-6-yl 4-methylpiperazine-1-carboxylate] yielded an IC50 at Wild-type RET kinase of 0.0127 µM. Further, the GI50 at Ba/F3-KIF5B-RET cell (setting [3]) was 0.0642 µM.

At Wild-type RET kinase, `COc1ccc(CN2C3CC2CN(c2cnc(-c4cc(OC(=O)N5CCOCC5)cn5ncc(C#N)c45)cn2)C3)cn1` [Compound 27, 3-cyano-4-(5-(6-((6-methoxypyridin-3-yl)methyl)-3,6-diazabicyclo[3.1.1]heptan-3-yl)pyrazin-2-yl]pyrazolo[1,5-a]pyridin-6-ylmorpholine-4-carboxylate] displayed an IC50 of 0.0157 µM. Further, the GI50 at Ba/F3-KIF5B-RET cell (setting [3]) stood at 0.0517 µM.

Take `COc1ccc(CN2C3CC2CN(c2cnc(-c4cc(NCc5ccccn5)cn5ncc(C#N)c45)cn2)C3)cn1` [Compound 28, 4-(5-(6-((6-methoxypyridin-3-yl)methyl)-3,6-diazabicyclo[3.1.1]heptan-3-yl)pyrazin-2-yl)-6-((pyridin-2-ylmethyl)amino)pyrazolo[1,5-a]pyridine-3-carbonitrile]: on Wild-type RET kinase (setting [1]), the IC50 amounted to 0.0013 µM. Further, on Ba/F3-KIF5B-RET cell (setting [2]), the GI50 came to 0.0126 µM.

Regarding `COc1ccc(CN2C3CC2CN(c2cnc(-c4cc(OCCN5CCC6(CC5)COC6)cn5ncc(C#N)c45)cn2)C3)cn1` [Compound 30, 6-(2-(2-oxa-7-azaspiro[3.5]non-7-yl)ethoxy)-4-(5-(6-((6-methoxypyridin-3-yl)methyl)-3,6-diazabicyclo[3.1.1]heptan-3-yl)pyrazin-2-yl)pyrazolo[1,5-a]pyridine-3-carbonitrile], at Wild-type RET kinase (setting [1]), the IC50 turned out to be 0.00398 µM. Further, at Ba/F3-KIF5B-RET cell (setting [2]), the GI50 is 0.0634 µM.

As to `COc1ccc(CN2C3CC2CN(c2cnc(-c4cc(OCCN5C6CCC5COC6)cn5ncc(C#N)c45)cn2)C3)cn1` [Compound 31, 6-(2-(3-oxa-8-azabicyclo[3.2.1]oct-8-yl)ethoxy)-4-(5-(6-((6-methoxypyridine-3-yl)methyl)-3,6diazabicyclo[3.1.1]heptan-3-yl)pyrazin-2-yl)pyrazolo[1,5-a]pyridine-3-carbonitrile], the IC50 at Wild-type RET kinase (setting [1]) is 0.0014 µM. Further, the GI50 on Ba/F3-KIF5B-RET cell (setting [2]) is 0.0051 µM.

For the molecule `COc1ccc(CN2C3CC2CN(c2cnc(-c4cc(OCCN5CCC6(CC5)CC(=O)N6)cn5ncc(C#N)c45)cn2)C3)cn1` [Compound 32, 4-(5-(6-((6-methoxypyridin-3-yl)methyl)-3,6-diazabicyclo[3.1.1]heptan-3-yl)pyrazin-2-yl)-6-(2-(2-oxo-1,7-diazaspiro[3.5]non-7-yl)ethoxy)pyrazolo[1,5-a]pyridine-3-carbonitrile], on Wild-type RET kinase (setting [1]), the IC50 worked out at 0.00414 µM. Besides, the GI50 at Ba/F3-KIF5B-RET cell (setting [2]) turned out to be 0.0833 µM.

Take `COc1ccc(CN2C3CC2CN(c2cnc(-c4cc(OCCN5CC6(CCCOC6)C5)cn5ncc(C#N)c45)cn2)C3)cn1` [Compound 33, 6-(2-(6-oxa-2-azaspiro[3.5]non-2-yl)ethoxy)-4-(5-(6-((6-methoxypyridin-3-yl)methyl)-3,6-diazabicyclo[3.1.1]heptan-3-yl)pyrazin-2-yl)pyrazolo[1,5-a]pyridine-3-carbonitrile]: the IC50 at Wild-type RET kinase (setting [1]) was found to be 0.00573 µM. In addition, the GI50 at Ba/F3-KIF5B-RET cell (setting [2]) is 0.026 µM.

Take `COc1ccc(CN2C3CC2CN(c2cnc(-c4cc(OCCN5CC6(CCCO6)C5)cn5ncc(C#N)c45)cn2)C3)cn1` [Compound 34, 6-(2-(5-oxa-2-azaspiro[3.4]oct-2-yl)ethoxy)-4-(5-(6-((6-methoxypyridin-3-yl)methyl)-3,6-diazabicyclo[3.1.1]heptan-3-yl)pyrazin-2-yl)pyrazolo[1,5-a]pyridine-3-carbonitrile]: on Wild-type RET kinase (setting [1]), the IC50 was 0.00204 µM. Besides, the GI50 at Ba/F3-KIF5B-RET cell (setting [2]) came to 0.0138 µM.

As for `COc1ccc(CN2C3CC2CN(c2cnc(-c4cc(OCCN5CCC6(CCCNC6=O)CC5)cn5ncc(C#N)c45)cn2)C3)cn1` [Compound 35, 4-(5-(6-((6-methoxypyridin-3-yl)methyl)-3,6-diazabicyclo[3.1.1]heptan-3-yl)pyrazin-2-yl)-6-(2-(-1-oxo-2,9-diazaspiro[5.5]undecan-9-yl)ethoxy)pyrazolo[1,5-a]pyridine-3-carbonitrile], the IC50 on Wild-type RET kinase (setting [1]) came to 0.00308 µM. Moreover, on Ba/F3-KIF5B-RET cell (setting [2]), the GI50 is 0.0815 µM.

For `COc1ccc(CN2C3CC2CN(c2cnc(-c4cc(OC(=O)NC(C)C)cn5ncc(C#N)c45)cn2)C3)cn1` [Compound 41, 3-cyano-4-(5-(6-((6-methoxypyridin-3-yl)methyl)-3,6-diazabicyclo[3.1.1]heptan-3-yl)pyrazin-2-yl)pyrazolo[1,5-a]pyridin-6-ylisopropylcarbamate], on Wild-type RET kinase, the IC50 is 0.0062 µM. The GI50 at Ba/F3-KIF5B-RET cell (setting [3]) was determined as 0.266 µM.

With “ethyl 4(6-(4-(6-methoxypyridin-3-yl)piperazin-1-yl)pyridin-3-yl)-6-(1-methyl-1H-pyrazol-4-yl)H-pyrazolo[1,5-a]pyridine-3-carboxylate [Compound 1]”, on Wild-type RET kinase (setting [1]), the IC50 is 0.0031 µM. Besides, on Ba/F3-KIF5B-RET cell (setting [2]), the GI50 amounted to 0.271 µM.
